Assay results as given in patent US8993591B2, “1,2,4-triazolo[4,3-a] pyridine derivatives and their use as positive allosteric modulators of MGLUR2 receptors” (Janssen Pharmaceuticals, Inc., priority 2010, dated 2015).

Target: T1, human mGluR2 receptor (Homo sapiens, UniProt Q14416)
T1 construct: expressed in transfected cells; host or cells: CHO cells (membranes)
Assay: [35S]GTPγS binding assay, mGluR2 positive allosteric modulation (PAM)
Format: biochemical
Conditions: membranes from CHO cells transfected with human mGluR2, in presence of glutamate at EC20; for EC50: -log EC50 with EC50 in M, read-out: GTPγS - hmGluR2 PAM pEC50 (converted); for Emax: maximal % effect relative to the control glutamate response, read-out: GTPγS - hmGluR2 PAM Emax
Description: The [^35S]GTPγS binding assay is a functional membrane-based assay used to study G-protein coupled receptor (GPCR) function whereby incorporation of a non-hydrolysable form of GTP, [^35S]GTPγS (guanosine 5′-triphosphate, labelled with […] ^35S), is measured. The G-protein α subunit catalyzes the exchange of guanosine 5′-diphosphate (GDP) by guanosine triphosphate (GTP) and on activation of the GPCR by an agonist, [^35S]GTPγS, becomes incorporated and cannot be cleaved to continue the exchange cycle (Harper (1998) Current Protocols in Pharmacology 2.6.1-10, John Wiley & Sons, Inc.). […] Here we describe the use of the [^35S]GTPγS binding assay using membranes from cells transfected with the human mGluR2 receptor and adapted from Schaffhauser et al. ((2003) Molecular Pharmacology 4:798-810) for the detection of the positive allosteric modulation (PAM) properties of the compounds of this invention.
CHO-cells were cultured to pre-confluence and stimulated with 5 mM butyrate for 24 h. Cells were then collected by scraping in PBS and cell suspension was centrifuged (10 min at 4000 RPM in benchtop centrifuge). Supernatant was discarded and pellet gently resuspended in 50 mM Tris-HCl, pH 7.4 by mixing with a vortex and pipetting up and down. The suspension was centrifuged at 16,000 RPM (Sorvall RC-5C plus rotor SS-34) for 10 minutes and the supernatant discarded. The pellet was homogenized in 5 mM Tris-HCl, pH 7.4 using an ultra-turrax homogenizer and centrifuged again (18,000 RPM, 20 min, 4° C.). The final pellet was resuspended in 50 mM Tris-HCl, pH 7.4 and stored at −80° C. in appropriate aliquots before use. Protein concentration was determined by the Bradford method (Bio-Rad, USA) with bovine serum albumin as standard.
Measurement of mGluR2 positive allosteric modulatory activity of test compounds was performed as follows. Test compounds and glutamate were diluted in assay buffer containing 10 mM HEPES acid, 10 mM HEPES salt, pH 7.4, 100 mM NaCl, 3 mM MgCl2 and 10 μM GDP. Human mGlu2 receptor-containing membranes were thawed on ice and diluted in assay buffer supplemented with 14 μg/ml saponin. Membranes were pre-incubated with compound alone or together with a predefined (˜EC20) concentration of glutamate (PAM assay) for 30 min at 30° C. After addition of [^35S]GTPγS (f.c. 0.1 nM), assay mixtures were shaken briefly and further incubated to allow [^35S]GTPγS incorporation on activation (30 minutes, 30° C.). Final assay mixtures contained 7 μg of membrane protein in 10 mM HEPES acid, 10 mM HEPES salt, pH 7.4, 100 mM NaCl, 3 mM MgCl2, 10 μM GDP and 10 μg/ml saponin. Total reaction volume was 200 μl. Reactions were terminated by rapid filtration through Unifilter-96 GF/B plates (Perkin Elmer, Mass., USA) using a 96-well filtermate universal harvester. Filters were washed 6 times with ice-cold 10 mM NaH2PO4/10 mM Na2HPO4, pH 7.4. Filters were then air-dried, and 40 μl of liquid scintillation cocktail (Microscint-O) was added to each well. Membrane-bound radioactivity was counted in a Microplate Scintillation and Luminescence Counter from Perkin Elmer.
The concentration-response curves of representative compounds of the present invention-obtained in the presence of EC20 of mGluR2 agonist glutamate to determine positive allosteric modulation (PAM)-were generated using the Lexis software interface (developed at J&J).

T1 sequence (Q14416 19-872): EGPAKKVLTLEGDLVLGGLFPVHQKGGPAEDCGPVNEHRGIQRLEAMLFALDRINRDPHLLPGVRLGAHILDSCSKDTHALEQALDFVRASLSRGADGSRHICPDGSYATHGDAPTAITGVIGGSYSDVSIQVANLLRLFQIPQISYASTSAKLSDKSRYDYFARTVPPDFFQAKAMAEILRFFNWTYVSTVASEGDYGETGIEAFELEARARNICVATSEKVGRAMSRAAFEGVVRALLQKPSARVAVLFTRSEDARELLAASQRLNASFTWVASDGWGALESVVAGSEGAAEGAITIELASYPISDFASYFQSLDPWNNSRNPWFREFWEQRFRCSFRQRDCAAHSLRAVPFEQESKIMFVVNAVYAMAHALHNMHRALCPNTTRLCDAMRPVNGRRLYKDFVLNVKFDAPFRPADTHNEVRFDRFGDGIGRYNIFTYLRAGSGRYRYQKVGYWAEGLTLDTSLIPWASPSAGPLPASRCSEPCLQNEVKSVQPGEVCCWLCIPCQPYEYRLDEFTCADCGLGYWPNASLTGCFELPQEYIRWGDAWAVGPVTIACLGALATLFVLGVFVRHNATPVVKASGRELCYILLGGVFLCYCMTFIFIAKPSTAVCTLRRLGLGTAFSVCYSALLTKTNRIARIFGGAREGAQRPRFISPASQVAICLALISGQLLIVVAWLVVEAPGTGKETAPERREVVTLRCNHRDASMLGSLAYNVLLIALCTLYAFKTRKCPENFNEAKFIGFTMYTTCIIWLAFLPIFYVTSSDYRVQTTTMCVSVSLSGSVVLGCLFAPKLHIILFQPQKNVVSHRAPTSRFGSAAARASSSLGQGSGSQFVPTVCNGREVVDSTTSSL

SMILES | EC50 [nM] | Emax [%]
FC(F)(F)c1c(CN2CCO[C@H](c3ccccc3)C2)ccn2c(CC3CC3)nnc12 [Compound 2, 3-(Cyclopropylmethyl)-7-[[(2R)-2-phenyl-4-morpholinyl]methyl]-8-(trifluoromethyl)-1,2,4-triazolo[4,3-a]pyridine] | 871 | 267
FC(F)(F)c1c(CN2CCO[C@@H](c3ccccc3)C2)ccn2c(CC3CC3)nnc12 [Compound 4, 3-(Cyclopropylmethyl)-7-[[(2S)-2-phenyl-4-morpholinyl]methyl]-8-(trifluoromethyl)-1,2,4-triazolo[4,3-c]pyridine] | 324 | 294
